Measurements reported in PubChem BioAssay (NCI).
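Test compounds were applied to cells in 96-well plates for 48 hours at 5 doses. Here, GI50 denotes the concentration required for 50% inhibition of growth. TGI is the concentration that stops growth completely.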

What was measured:
Assay in all cases: NCI tumour cell line growth inhibition, 48 h
SK-OV-3 ovarian = tested on: SK-OV-3 ovarian
NCI/ADR-RES ovarian = tested on: NCI/ADR-RES ovarian
EKVX NSCLC = tested on: EKVX NSCLC
OVCAR-3 ovarian = tested on: OVCAR-3 ovarian
UACC-257 melanoma = tested on: UACC-257 melanoma
PC-3 prostate = tested on: PC-3 prostate
HS 578T breast = tested on: HS 578T breast
IGROV1 ovarian = tested on: IGROV1 ovarian
NCI-H226 lung = tested on: NCI-H226 lung
MALME-3M melanoma = tested on: MALME-3M melanoma

Compound	GI50 (SK-OV-3 ovarian) [µM]	TGI (SK-OV-3 ovarian) [µM]	GI50 (NCI/ADR-RES ovarian) [µM]	TGI (NCI/ADR-RES ovarian) [µM]	GI50 (EKVX NSCLC) [µM]	TGI (EKVX NSCLC) [µM]	GI50 (OVCAR-3 ovarian) [µM]	TGI (OVCAR-3 ovarian) [µM]	GI50 (UACC-257 melanoma) [µM]	TGI (UACC-257 melanoma) [µM]	GI50 (PC-3 prostate) [µM]	TGI (PC-3 prostate) [µM]	GI50 (HS 578T breast) [µM]	TGI (HS 578T breast) [µM]	GI50 (IGROV1 ovarian) [µM]	TGI (IGROV1 ovarian) [µM]	GI50 (NCI-H226 lung) [µM]	TGI (NCI-H226 lung) [µM]	TGI (MALME-3M melanoma) [µM]	GI50 (MALME-3M melanoma) [µM]
C[C@]12CC[C@H]3[C@@H](CCC4=CC(=O)CC[C@@]43C)[C@@H]1CC[C@@H]2c1csc(N)n1	12.5	33.3	2.54	22.4	1.12	8.39	3.38	12.3	2.75	13	2.88	47.1	8.84	35.8	4.98	20.6	4.61	23.7		
CCCCCCCC(=O)OCC(COC(=O)C(C)(C)C)OC(=O)Cc1ccccc1 (stereo not given)		> 100						> 100								> 100		> 100	> 100	
CCOC(=O)c1nc(C)oc1C(F)(F)F		> 100				> 100		> 100		> 100						> 100		> 100	> 100	
O=c1cc(O)cc2n1CCC2		> 100				> 100		> 100		> 100						> 100		> 100	> 100	
COc1nc2c(c(O)c(C)c(=O)n2OC2OCC(OC(C)=O)C(OC(C)=O)C2OC(C)=O)c(=O)n1C (stereo not given)						> 100										> 100		> 100		
COC(=O)C1C(=O)O[C@@H](c2ccc3c(c2)OCO3)C1C(=O)OC (mixture of isomers)		> 100				> 100		> 100		> 100						> 100		> 100	> 100	
COc1cc(C)c(CC/C(C)=C/Cc2cc(O)ccc2O)c(C)c1C		> 25				> 25		> 25								> 25		> 25	> 25	
Cc1nc(N)nc(CCC(=O)Nc2cccc(C(F)(F)F)c2)c1-c1ccc(Cl)cc1		> 100				> 100		> 100		> 100						> 100		> 100	> 100	
Cc1ccc(S(=O)(=O)OCC/C(=C\[Si](C)(C)C)c2ccccc2)cc1		> 100				> 100		> 100		> 100						> 100		> 100	> 100	
N#CC(C(=O)C(=O)Nc1c(Cl)cccc1Cl)c1ccccc1 (stereo not given)	> 100	> 100			> 100	> 100	> 100	> 100							> 100	> 100	> 100	> 100	> 100	> 100
COc1ccc2sc3c(NCCCN)nc4ccccc4c3c(=O)c2c1	1.61	3.66			1.75	3.39	1.77	3.32	1.91	3.88	1.5	3.05			1.67	3.19	1.84	3.84	3.32	1.78
